Tests used:
[1] = system: Ross 708 chickens; assay: Livability: percentage of hatched birds surviving to 28 days after CO2 incubation; type: in vivo, chicken; settings: for percentage of birds that survived compared to control: 28 days
Protocol: 900 fertilized eggs from a commonly used commercial chicken strain, Ross 708, that were less than 1 week old since being laid, and laid in the same laying facility by layers (chickens) of the same age, were split equally into three batches of 300 each. One batch, referred to as control batch, was incubated for 18 days in an atmosphere in which no additional CO2 was injected into this atmosphere from any source outside the egg. For this batch, the CO2 concentration inside the incubator varied between the CO2 concentration of the ambient atmosphere (i.e. about 409 ppm) and as high as 1,500 ppm (resulting from CO2 generation by the eggs themselves). The second batch, referred to as 4,000 ppm test CO2 batch or 0.4% CO2 test batch, was incubated for 18 days wherein the CO2 concentration in the incubator from the start of the first day through the end of the eighteenth day was maintained at 4,000 ppm (i.e. 0.4% CO2) by occasional injections of CO2 as necessary. The third batch, referred to as 10,000 ppm test CO2 batch or 1% CO2 test batch, was incubated for 18 days according to Regimen 1 described herein, wherein the CO2 concentration in the incubator from the start of the first day through the end of the eighteenth day was maintained at 10,000 ppm (i.e. 1% CO2) by occasional injections of CO2 as necessary. All three batches were incubated at approximately 100° F. and between 30% and 70% relative humidity. At the end of the eighteenth day of incubation, all three batches of eggs were transferred to hatcher equipment, where the eggs hatched over the next 3 days. […]
Once the chicks hatched, approximately 150 of the male chicks from each batch were taken to grow cages and they began to be fed water and feed. […] Then the birds were measured for Woody Breast scores by manual palpitation by a trained panel of experts under single-blinded conditions. […] Score 0 means no WB was detected. Score 3 meant very high levels of WB detected and scores 1 and 2 meant intermediate levels of WB were detected. […]

[2] = Average bird weight at hatch and at 28 days after CO2 incubation; type: in vivo, chicken
Protocol: (§1) 900 fertilized eggs from a commonly used commercial chicken strain, Ross 708, that were less than 1 week old since being laid, and laid in the same laying facility by layers (chickens) of the same age, were split equally into three batches of 300 each. One batch, referred to as control batch, was incubated for 18 days in an atmosphere in which no additional CO2 was injected into this atmosphere from any source outside the egg. For this batch, the CO2 concentration inside the incubator varied between the CO2 concentration of the ambient atmosphere (i.e. about 409 ppm) and as high as 1,500 ppm (resulting from CO2 generation by the eggs themselves). The second batch, referred to as 4,000 ppm test CO2 batch or 0.4% CO2 test batch, was incubated for 18 days wherein the CO2 concentration in the incubator from the start of the first day through the end of the eighteenth day was maintained at 4,000 ppm (i.e. 0.4% CO2) by occasional injections of CO2 as necessary. The third batch, referred to as 10,000 ppm test CO2 batch or 1% CO2 test batch, was incubated for 18 days according to Regimen 1 described herein, wherein the CO2 concentration in the incubator from the start of the first day through the end of the eighteenth day was maintained at 10,000 ppm (i.e. 1% CO2) by occasional injections of CO2 as necessary. All three batches were incubated at approximately 100° F. and between 30% and 70% relative humidity. At the end of the eighteenth day of incubation, all three batches of eggs were transferred to hatcher equipment, where the eggs hatched over the next 3 days. No external CO2 was injected into the hatcher from any source outside the eggs for this period of 3 days. Thus, the only difference between the conditions under which the three batches were incubated was that in the control batch no additional CO2 was injected, whereas for the other two batches additional, external CO2 was injected to subject the eggs to CO2 concentrations of 4,000 ppm and 10,000 ppm respectively. During the incubation period the oxygen concentration in the control incubator was always above 20%, whereas in the 4,000 ppm and 10,000 ppm CO2 controlled incubators, the oxygen level was typically above 19%.
(§2) Once the chicks hatched, approximately 150 of the male chicks from each batch were taken to grow cages and they began to be fed water and feed. From this point onwards, there was no difference in the treatment of the birds. 28 days after hatching the chickens from each batch were weighed and then stunned. Then the birds were measured for Woody Breast scores by manual palpitation by a trained panel of experts under single-blinded conditions. Each breast was given a score of either 0, 1, 2 or 3. Score 0 means no WB was detected. Score 3 meant very high levels of WB detected and scores 1 and 2 meant intermediate levels of WB were detected.
(§3) 600 fertilized eggs from a commonly used commercial chicken strain, Ross 708, that were less than 1 week old since being laid, and laid in the same laying facility by layers (chickens) of the same age, were split equally into batches of 300 each. One batch, referred to as control batch, was incubated for 18 days in an atmosphere in which no additional CO2 was injected into this atmosphere from any source outside the egg. For this batch, the CO2 concentration inside the incubator varied between ambient atmospheric (i.e. about 409 ppm) and as high as 1,500 ppm (resulting from CO2 generation by the egg). […]

[3] = system: Ross 708 chickens (Woody Breast); assay: Woody Breast scores by manual palpation in chickens hatched from eggs incubated under controlled CO2; type: in vivo, chicken
Protocol: as §1, §2, §3

[4] = system: fertilized Ross 708 chicken eggs; assay: Percent of fertile eggs hatched at end of 21 days of incubation under controlled CO2; type: in vivo
Protocol: as §1
as §3, with “egg.” for “egg. For this batch, the CO2 concentration inside the incubator varied between ambient atmospheric (i.e. about 409 ppm) and as high as 1,500 ppm (resulting from CO2 generation by the egg).”

[5] = Regimen 1, constant 1% CO2 for 18 days

O=C=O [CO2, carbon dioxide]
more hatched birds surviving to end of 28 days compared to control [1, 5]: Approximately 4% | percentage of birds that survived compared to control ([1]; Regimen 2, 1% CO2 ramp up): no statistical difference | percentage of birds that survived compared to control ([1]; Regimen 3, 0.75% CO2 on-off): no statistical difference | average final weight at 28 days, higher than control by [2, 5]: approximately 5% | increase of average weight just after hatch vs control [2, 5]: approximately 5% | average weight at hatch, lower than control by ([2]; Regimen 2, 1% CO2 ramp up): approximately 6.5% | weight at 28 days compared to control birds ([2]; Regimen 2, 1% CO2 ramp up): slightly heavier | average weight at hatch, lower than control by ([2]; Regimen 3, 0.75% CO2 on-off): approximately 1.5% | weight at 28 days, heavier than control birds by ([2]; Regimen 3, 0.75% CO2 on-off): 11% | % of birds scoring 1 (Woody Breast score) ([3]; Regimen 1, constant 10,000 ppm (1%) CO2 for 18 days, 28 days after hatching, control 24%): 15% | incidence of WB compared to control birds ([3]; Regimen 1, constant 10,000 ppm (1%) CO2 in incubator for 18 days, scored 28 days after hatching): significantly reduced | % of birds scoring 1 (Woody Breast score) ([3]; Regimen 2, 1% CO2 ramp up, 28 days after hatching, control 13%): 8% | incidence of WB compared to control birds ([3]; Regimen 2, CO2 ramp up in equal daily steps to 10,000 ppm (1%) on day 18, 28 days after hatching): significantly reduced | % of birds scoring 2 (Woody Breast score) ([3]; Regimen 3, 0.75% CO2 on-off, 28 days after hatching, control 5%): 1% | % of birds scoring 1 (Woody Breast score) ([3]; Regimen 3, 0.75% CO2 on-off, 28 days after hatching, control 23%): 17% | % of birds scoring 0 (Woody Breast score) ([3]; Regimen 3, 0.75% CO2 on-off, 28 days after hatching, control 73%): 82% | incidence of WB compared to control birds ([3]; Regimen 3, 7,500 ppm (0.75%) CO2 on-off on alternate 24 h periods till day 18, 28 days after hatching): significantly reduced | WB scores compared to control ([3]; constant 4,000 ppm (0.4%) CO2 for 18 days, 28 days after hatching): higher | % of birds scoring 2 (Woody Breast score) ([3]; constant 4,000 ppm (0.4%) CO2 for 18 days, 28 days after hatching, control 1%): 9% | percent of fertile eggs that hatched at the end of 21 days of incubation ([4]; Regimen 1, constant 10,000 ppm (1%) CO2 for 18 days, control 88.1%): 93.5% | percent of fertile eggs that hatched at the end of 21 days of incubation ([4]; Regimen 2, 1% CO2 ramp up, control 91%): 94.1% | percent of fertile eggs that hatched at the end of 21 days of incubation ([4]; Regimen 3, 0.75% CO2 on-off, control 88.7%): 96% | percent of fertile eggs that hatched at the end of 21 days of incubation ([4]; constant 4,000 ppm (0.4%) CO2 for 18 days, control 88.1%): 95.6%

From patent US20240189344A1, “METHODS USING CARBON DIOXIDE AND OXYGEN TO IMPROVE CHARACTERISTICS OF POULTRY” (priority 2022, published 2024)
